For orientation: Kd means the equilibrium constant for the complex coming apart. Lower therefore signals higher affinity.

SMILES strings stand for the structures.

The target of this test is PC4 and SFRS1-interacting protein (Homo sapiens, UniProt O75475).
PC4 and SFRS1-interacting protein, sequence (O75475 whole entry): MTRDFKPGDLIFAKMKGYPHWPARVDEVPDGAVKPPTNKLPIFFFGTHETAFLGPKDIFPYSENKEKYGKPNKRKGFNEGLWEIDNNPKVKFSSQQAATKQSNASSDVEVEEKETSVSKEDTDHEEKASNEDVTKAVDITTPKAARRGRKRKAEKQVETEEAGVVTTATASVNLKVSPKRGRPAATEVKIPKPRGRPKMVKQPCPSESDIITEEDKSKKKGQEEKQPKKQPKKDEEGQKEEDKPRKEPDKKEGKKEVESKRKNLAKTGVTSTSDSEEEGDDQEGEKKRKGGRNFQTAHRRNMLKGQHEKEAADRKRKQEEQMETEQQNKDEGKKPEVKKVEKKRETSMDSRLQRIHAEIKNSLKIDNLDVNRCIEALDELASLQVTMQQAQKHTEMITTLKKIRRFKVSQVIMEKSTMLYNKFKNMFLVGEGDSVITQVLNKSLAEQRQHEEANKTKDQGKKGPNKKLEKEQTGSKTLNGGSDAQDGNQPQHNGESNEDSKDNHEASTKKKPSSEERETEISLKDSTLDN
Description: Binding affinity to N-terminal His10-tagged LEDGF/P75 PWWP domain (1 to 110 residues) (unknown origin) expressed in Escherichia coli assessed as dissociation constant incubated for overnight by NMR analysis
For `NCc1cncc(Br)c1`, the Kd stood at 216 µM.
The figure for `CCS(=O)(=O)c1ccc(C2CCCCN2)cc1` (stereo unspecified) is 526 µM; for `CCS(=O)(=O)c1ccccc1NC(=O)COc1cccc(CC(=O)O)c1` it is 590 µM.
As for `NC(=O)CCN1CCCC1c1ccccc1` (stereo unspecified), the figure is 363 µM; as for `CCS(=O)(=O)c1ccccc1NC(=O)CCl`, 700 µM.
As for `Nc1ccc(CNCc2cncc(Br)c2)cc1`, the figure is 147 µM.

For the origin of these results see ChEMBL document CHEMBL6083267, “Rational fragment-based design of compounds targeting the PWWP domain of the HRP family” (Eur J Med Chem, 2024).
